ChEMBL document CHEMBL5465560, “Selectivity Literature for EUbOPEN Chemogenomic Library” (2024)

Tests used:
[1] = biological target: Serine/threonine-protein kinase 24 (Homo sapiens) (UniProt Q9Y6E0); test: Selectivity interaction (KinomeScan (DiscoverX)) EUB0000595a STK24; settings: at 10 µM
[2] = biological target: RAC-gamma serine/threonine-protein kinase (Homo sapiens, UniProt Q9Y243); test: Selectivity interaction (KinomeScan (DiscoverX)) EUB0000045b AKT3
[3] = biological target: Ribosomal protein S6 kinase alpha-2 (Homo sapiens) (UniProt Q15349); settings: at 10 µM
[4] = biological target: T1, MAP kinase-activated protein kinase 5 (Homo sapiens) (UniProt Q8IW41); test: Selectivity interaction (Millipore kinase profiler) EUB0000124b MAPKAPK5; settings: at 10 µM
T1 sequence (whole entry): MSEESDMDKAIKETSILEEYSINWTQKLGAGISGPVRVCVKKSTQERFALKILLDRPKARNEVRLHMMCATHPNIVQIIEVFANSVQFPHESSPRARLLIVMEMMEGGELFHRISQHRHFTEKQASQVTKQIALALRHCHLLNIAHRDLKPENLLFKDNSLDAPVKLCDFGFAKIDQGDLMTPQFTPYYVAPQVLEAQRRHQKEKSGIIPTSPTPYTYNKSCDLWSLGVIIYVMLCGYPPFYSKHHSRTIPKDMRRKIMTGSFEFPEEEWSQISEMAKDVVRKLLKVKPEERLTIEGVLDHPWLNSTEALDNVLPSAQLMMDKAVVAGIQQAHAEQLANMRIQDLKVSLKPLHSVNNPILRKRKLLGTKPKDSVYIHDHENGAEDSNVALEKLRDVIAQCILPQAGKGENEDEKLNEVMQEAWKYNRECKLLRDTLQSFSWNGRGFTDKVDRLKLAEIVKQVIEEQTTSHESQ

[5] = biological target: Serine/threonine-protein kinase PAK 1 (Homo sapiens) (UniProt Q13153); test: Selectivity interaction (Kinase panel (Eurofins)) EUB0001564a PAK1; settings: at 1 µM
[6] = biological target: T2, Dual specificity mitogen-activated protein kinase kinase 3 (Homo sapiens) (UniProt P46734); test: Selectivity interaction (KinomeScan (DiscoverX)) EUB0001619a MAP2K3; settings: at 1 µM
T2 sequence (whole entry): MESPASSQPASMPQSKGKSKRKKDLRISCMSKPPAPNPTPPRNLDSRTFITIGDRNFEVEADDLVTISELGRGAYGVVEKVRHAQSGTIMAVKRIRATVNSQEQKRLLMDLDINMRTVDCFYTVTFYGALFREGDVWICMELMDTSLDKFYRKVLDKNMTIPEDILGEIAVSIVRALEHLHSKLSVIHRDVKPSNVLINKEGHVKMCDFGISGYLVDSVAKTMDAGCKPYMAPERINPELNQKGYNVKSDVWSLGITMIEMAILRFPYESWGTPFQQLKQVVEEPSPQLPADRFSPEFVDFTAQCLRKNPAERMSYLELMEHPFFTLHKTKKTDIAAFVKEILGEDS

[7] = biological target: Tyrosine-protein kinase Blk (Homo sapiens) (UniProt P51451); test: Selectivity interaction (KinomeScan (DiscoverX)) EUB0001619a BLK; settings: at 1 µM
Tyrosine-protein kinase Blk (Homo sapiens), sequence (P51451 2-505 limits assumed): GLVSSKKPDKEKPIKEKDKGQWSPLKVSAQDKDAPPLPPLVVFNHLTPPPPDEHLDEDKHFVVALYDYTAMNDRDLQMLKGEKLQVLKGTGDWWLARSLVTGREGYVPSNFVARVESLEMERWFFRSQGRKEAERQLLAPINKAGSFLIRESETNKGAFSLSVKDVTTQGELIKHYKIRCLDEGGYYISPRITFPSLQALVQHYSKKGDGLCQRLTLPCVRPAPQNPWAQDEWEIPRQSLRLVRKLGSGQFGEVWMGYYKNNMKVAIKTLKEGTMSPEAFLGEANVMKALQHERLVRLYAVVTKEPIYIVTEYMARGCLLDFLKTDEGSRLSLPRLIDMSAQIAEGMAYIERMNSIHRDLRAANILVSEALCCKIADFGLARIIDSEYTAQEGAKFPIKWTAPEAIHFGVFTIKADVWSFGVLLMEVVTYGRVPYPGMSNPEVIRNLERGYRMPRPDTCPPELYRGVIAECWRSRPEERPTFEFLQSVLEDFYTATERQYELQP

[8] = biological target: Interleukin-1 receptor-associated kinase 1 (Homo sapiens) (UniProt P51617); test: Selectivity interaction (KinomeScan (DiscoverX)) EUB0000607a IRAK1; settings: at 10 µM
Interleukin-1 receptor-associated kinase 1 (Homo sapiens), sequence (P51617 whole entry, looked up): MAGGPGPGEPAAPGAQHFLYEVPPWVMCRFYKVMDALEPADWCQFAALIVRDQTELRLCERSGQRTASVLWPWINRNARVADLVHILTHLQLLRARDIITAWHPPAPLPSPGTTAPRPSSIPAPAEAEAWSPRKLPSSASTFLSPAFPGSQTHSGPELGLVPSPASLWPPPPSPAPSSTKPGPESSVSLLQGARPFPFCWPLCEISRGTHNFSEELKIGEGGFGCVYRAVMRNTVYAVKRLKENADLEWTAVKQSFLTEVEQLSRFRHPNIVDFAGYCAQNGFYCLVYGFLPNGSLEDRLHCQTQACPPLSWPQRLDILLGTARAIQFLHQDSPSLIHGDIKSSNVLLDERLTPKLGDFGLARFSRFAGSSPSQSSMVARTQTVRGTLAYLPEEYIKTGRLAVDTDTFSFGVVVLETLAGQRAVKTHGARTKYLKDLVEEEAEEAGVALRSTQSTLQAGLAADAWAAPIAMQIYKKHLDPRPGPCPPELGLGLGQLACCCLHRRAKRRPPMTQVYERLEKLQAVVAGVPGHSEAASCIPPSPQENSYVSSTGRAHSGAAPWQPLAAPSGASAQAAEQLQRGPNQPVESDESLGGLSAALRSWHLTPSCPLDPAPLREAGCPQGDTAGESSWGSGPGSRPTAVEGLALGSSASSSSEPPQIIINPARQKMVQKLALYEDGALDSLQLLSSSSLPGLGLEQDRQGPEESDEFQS

[9] = biological target: MAP/microtubule affinity-regulating kinase 3 (Homo sapiens) (UniProt P27448); test: Selectivity interaction (Kinase panel (Invitrogen)) EUB0000639a MARK3; settings: at 200 nM
MAP/microtubule affinity-regulating kinase 3 (Homo sapiens), sequence (P27448 whole entry, looked up): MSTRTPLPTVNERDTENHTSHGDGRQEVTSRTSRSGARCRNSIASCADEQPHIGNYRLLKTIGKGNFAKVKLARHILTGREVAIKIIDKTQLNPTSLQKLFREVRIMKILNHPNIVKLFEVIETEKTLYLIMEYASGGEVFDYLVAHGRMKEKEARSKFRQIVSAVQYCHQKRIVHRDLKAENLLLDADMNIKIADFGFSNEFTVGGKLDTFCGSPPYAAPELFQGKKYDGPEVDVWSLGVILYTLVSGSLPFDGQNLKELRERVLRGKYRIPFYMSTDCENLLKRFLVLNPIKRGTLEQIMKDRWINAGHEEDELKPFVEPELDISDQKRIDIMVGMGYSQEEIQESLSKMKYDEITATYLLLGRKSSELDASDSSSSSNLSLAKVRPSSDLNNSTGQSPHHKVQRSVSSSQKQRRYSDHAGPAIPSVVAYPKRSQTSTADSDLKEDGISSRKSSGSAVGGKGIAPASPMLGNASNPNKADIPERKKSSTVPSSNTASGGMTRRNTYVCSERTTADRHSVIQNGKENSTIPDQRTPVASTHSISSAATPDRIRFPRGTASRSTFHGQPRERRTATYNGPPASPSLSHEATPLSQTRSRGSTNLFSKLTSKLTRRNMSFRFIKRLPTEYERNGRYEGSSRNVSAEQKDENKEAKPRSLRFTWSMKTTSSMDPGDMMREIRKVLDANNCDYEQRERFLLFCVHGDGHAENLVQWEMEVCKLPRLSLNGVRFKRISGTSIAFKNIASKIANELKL

[10] = biological target: Non-receptor tyrosine-protein kinase TYK2 (Homo sapiens, UniProt P29597); test: Selectivity interaction (ActivX KiNativ screen (kinase selectivity in THP-1 cell lysates)) EUB0000639a TYK2; format: subcellular; settings: lysate, at 0.2 µM
[11] = biological target: Ribosomal protein S6 kinase alpha-3 (Homo sapiens, UniProt P51812); test: Selectivity interaction (KinomeScan (DiscoverX)) EUB0000655a RPS6KA3; settings: at 10 µM
[12] = biological target: Citron Rho-interacting kinase (Homo sapiens) (UniProt O14578); settings: at 10 µM
Citron Rho-interacting kinase (Homo sapiens), sequence (O14578 whole entry): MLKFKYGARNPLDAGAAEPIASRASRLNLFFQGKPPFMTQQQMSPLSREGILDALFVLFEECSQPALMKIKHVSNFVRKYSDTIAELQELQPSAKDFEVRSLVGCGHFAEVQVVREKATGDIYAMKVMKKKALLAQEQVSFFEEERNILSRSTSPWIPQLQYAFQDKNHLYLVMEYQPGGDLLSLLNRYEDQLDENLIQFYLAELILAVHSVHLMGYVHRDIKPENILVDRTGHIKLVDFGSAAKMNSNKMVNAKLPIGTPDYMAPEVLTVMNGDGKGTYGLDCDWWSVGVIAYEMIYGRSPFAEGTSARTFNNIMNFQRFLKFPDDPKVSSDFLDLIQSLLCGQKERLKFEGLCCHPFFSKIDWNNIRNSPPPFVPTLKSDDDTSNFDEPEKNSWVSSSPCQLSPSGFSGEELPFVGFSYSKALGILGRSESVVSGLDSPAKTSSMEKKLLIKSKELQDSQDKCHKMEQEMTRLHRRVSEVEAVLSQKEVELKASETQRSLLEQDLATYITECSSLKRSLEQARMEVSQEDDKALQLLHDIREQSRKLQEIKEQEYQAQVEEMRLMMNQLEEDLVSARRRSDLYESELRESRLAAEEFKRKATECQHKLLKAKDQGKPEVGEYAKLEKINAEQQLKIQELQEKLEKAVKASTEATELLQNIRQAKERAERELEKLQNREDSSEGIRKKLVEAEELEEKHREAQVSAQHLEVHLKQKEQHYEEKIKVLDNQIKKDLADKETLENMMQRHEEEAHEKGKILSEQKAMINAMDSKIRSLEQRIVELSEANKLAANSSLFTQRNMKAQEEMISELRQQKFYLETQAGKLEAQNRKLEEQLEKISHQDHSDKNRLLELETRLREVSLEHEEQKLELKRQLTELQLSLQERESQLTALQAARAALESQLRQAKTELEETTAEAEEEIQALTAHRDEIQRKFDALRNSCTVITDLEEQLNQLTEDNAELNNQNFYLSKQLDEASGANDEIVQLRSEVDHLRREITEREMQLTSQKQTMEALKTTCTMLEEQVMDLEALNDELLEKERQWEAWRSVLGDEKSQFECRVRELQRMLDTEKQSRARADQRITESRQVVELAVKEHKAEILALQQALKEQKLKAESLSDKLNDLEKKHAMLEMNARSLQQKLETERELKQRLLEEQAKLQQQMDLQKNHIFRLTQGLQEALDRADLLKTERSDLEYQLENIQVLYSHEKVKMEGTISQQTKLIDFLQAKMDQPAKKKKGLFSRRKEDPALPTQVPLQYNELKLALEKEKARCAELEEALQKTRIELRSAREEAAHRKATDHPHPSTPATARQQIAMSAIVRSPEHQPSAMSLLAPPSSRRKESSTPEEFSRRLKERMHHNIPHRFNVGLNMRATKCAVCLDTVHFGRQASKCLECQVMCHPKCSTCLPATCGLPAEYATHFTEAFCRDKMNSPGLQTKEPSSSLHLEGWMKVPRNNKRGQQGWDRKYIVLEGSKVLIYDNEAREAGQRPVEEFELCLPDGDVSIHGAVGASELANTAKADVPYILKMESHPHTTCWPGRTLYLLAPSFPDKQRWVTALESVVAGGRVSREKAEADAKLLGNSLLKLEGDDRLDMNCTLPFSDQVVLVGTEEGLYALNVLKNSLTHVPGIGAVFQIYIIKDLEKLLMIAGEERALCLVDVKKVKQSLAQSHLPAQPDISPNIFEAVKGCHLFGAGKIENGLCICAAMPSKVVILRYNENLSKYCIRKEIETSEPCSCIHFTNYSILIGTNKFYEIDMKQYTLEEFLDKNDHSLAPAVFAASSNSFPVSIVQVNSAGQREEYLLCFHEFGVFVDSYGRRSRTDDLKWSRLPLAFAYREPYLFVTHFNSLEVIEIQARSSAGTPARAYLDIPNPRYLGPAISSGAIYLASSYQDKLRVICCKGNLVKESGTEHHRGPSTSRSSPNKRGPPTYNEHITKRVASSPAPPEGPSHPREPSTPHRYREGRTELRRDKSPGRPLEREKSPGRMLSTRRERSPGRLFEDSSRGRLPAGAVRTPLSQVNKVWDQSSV

[13] = biological target: T3, Ephrin type-A receptor 6 (Homo sapiens) (UniProt Q9UF33); test: Selectivity interaction (Ambit KINOMEscan and KiNATiv profiling in Jurkat cells) EUB0000090b EPHA6; format: cell-based; settings: at 1 µM
T3 sequence (whole entry): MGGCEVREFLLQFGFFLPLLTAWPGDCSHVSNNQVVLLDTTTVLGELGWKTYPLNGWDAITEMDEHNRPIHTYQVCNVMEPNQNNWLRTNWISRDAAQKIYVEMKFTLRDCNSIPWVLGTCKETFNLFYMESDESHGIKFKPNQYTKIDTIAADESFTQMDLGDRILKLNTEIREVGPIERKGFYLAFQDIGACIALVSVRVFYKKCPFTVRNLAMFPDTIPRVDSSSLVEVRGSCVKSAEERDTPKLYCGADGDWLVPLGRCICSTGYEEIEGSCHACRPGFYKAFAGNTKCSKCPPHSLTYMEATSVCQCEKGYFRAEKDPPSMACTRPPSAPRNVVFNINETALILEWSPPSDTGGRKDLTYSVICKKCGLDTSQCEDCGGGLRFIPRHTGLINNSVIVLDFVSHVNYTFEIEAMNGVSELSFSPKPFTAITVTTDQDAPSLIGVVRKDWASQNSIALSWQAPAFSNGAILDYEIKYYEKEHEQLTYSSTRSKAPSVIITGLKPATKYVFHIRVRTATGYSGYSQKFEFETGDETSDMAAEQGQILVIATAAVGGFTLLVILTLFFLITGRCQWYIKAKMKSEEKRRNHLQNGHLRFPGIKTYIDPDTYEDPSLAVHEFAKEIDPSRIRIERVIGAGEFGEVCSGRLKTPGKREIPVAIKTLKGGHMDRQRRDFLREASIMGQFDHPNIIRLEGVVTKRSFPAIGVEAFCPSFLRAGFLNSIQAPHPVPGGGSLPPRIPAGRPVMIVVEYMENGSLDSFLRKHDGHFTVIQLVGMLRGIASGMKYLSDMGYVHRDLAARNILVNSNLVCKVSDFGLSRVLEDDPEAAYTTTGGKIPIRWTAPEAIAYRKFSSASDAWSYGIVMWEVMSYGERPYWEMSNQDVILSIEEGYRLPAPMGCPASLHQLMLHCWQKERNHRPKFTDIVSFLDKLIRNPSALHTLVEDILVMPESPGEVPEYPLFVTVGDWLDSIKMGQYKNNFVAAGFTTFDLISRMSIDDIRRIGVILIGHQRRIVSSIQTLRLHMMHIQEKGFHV

RAC-gamma serine/threonine-protein kinase, sequence (Q9Y243 whole entry): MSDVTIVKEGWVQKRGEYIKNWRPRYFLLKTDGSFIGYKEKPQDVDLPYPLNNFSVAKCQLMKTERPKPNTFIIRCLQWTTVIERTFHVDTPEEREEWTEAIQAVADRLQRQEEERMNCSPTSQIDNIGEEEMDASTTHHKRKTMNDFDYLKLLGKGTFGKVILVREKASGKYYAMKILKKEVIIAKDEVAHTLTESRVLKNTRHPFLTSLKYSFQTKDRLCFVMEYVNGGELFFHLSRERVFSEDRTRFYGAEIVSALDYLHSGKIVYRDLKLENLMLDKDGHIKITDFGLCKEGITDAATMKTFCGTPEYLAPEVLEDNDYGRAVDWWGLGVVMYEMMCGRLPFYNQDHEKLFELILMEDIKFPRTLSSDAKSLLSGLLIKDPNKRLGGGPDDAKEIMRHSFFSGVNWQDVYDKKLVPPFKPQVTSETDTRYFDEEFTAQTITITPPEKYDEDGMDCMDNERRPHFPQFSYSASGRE
Serine/threonine-protein kinase 24 (Homo sapiens), sequence (Q9Y6E0 whole entry, looked up): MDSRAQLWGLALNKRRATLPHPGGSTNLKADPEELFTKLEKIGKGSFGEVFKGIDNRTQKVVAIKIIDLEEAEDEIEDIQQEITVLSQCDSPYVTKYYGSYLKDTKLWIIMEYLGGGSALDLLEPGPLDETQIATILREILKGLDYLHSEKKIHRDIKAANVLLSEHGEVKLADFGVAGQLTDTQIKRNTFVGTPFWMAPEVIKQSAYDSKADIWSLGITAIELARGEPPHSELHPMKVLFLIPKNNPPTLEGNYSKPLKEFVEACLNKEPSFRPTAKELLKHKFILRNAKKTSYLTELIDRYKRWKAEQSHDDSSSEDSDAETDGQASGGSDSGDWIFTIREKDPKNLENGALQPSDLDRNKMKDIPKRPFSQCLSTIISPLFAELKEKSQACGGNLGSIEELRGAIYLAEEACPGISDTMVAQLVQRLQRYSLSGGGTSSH

## COCC(=O)NC/C=C/c1ccc2ncnc(Nc3ccc(Oc4ccc(C)nc4)c(C)c3)c2c1 [CP-724714]
[1]
  % of control: 90%

## C=CC(=O)Nc1cc(-n2c(=O)ccc3cnc4ccc(-c5ccc(NS(C)(=O)=O)cc5)cc4c32)ccc1C
[2]; at 1 µM
  % of control: 75%
[2]; at 10 µM
  % of control: 100%

## Cc1cc([C@@H](C)Nc2ccccc2C(=O)O)c2nc(N3CCOCC3)cc(=O)n2c1 [AZD-6482]
[3]
  % of control: 98%

## CC(=O)Nc1cccc(-n2c(=O)n(C3CC3)c(=O)c3c(Nc4ccc(I)cc4F)n(C)c(=O)c(C)c32)c1
[4]
  % of control: 91%

## CC[C@@H](Nc1c(C#N)c(-c2ccc(-c3cccc(C)c3F)cc2)nc2cnccc12)C(=O)O [BAY-091]
[5]
  % of inhibition: 23.8%

## N#Cc1cccc(-c2c[nH]c3ncnc(N4CCOCC4)c23)c1
[6]
  % of control: 71%
[7]
  % of control: 72%

## CNC(=O)Nc1ccc(-c2nc(N3CC4CCC(C3)O4)c3cnn(C4CCC5(CC4)OCCO5)c3n2)cc1
[8]
  % of control: 100%

## CC[C@@H]1[C@H](F)C(=O)N[C@@H]1COc1nccc2cc(C(N)=O)c(OC)cc12 [ZIMLOVISERTIB]
[9]
  % of inhibition: 12.4%
[10]
  % of inhibition: 14%

## CN(C)CCOc1ccc(-c2nc(-c3ccncc3)c(-c3ccc4c(c3)CC/C4=N\O)[nH]2)cc1
[11]
  % of control: 67%

## CCN(CC)CCCCNc1ncc2cc(-c3cc(OC)cc(OC)c3)c(NC(=O)NC(C)(C)C)nc2n1
[12]
  % of control: 100%

## CN(C)C/C=C/C(=O)Nc1ccc(C(=O)N2CCCC(Nc3ncc(Cl)c(-c4c[nH]c5ccccc45)n3)C2)cc1 (centres undefined)
[13]
  % of control: 93%
